# Legend:
# [1] = tested on: DHFR (human) versus PTR1 (Leishmania major); test: Selectivity index, ratio of IC50 for human DHFR to IC50 for Leishmania major PTR1; assay type: toxicity; settings: human DHFR enzyme and Leishmania major PTR1 enzyme, read-out: Ratio IC50
# [2] = tested on: Leishmania infantum; test: Antileishmanial activity against Leishmania infantum MHOM/TN/1980/IPT1 incubated for 48 hrs by XTT method; assay type: functional, organism-based; settings: MHOM/TN/1980/IPT1, 48 h
# [3] = tested on: Leishmania tropica; test: Antileishmanial activity against Leishmania tropica MHOM/A7/1974/SAF-K27 incubated for 48 hrs by XTT method; assay type: functional, organism-based; settings: MHOM/A7/1974/SAF-K27, 48 h
# [4] = tested on: Leishmania infantum; test: Antileishmanial activity against Leishmania infantum MHOM/TN/1980/IPT1 incubated for 48 hrs by Neubauer hemocytometer analysis; assay type: functional, organism-based; settings: MHOM/TN/1980/IPT1, 48 h
# [5] = (§1) Cytotoxicity against mouse RAW264.7 cells by alamar blue method; assay type: toxicity, cell-based; settings: mouse, RAW264.7 cells
# [6] = tested on: RAW264.7; test: as §1; assay type: toxicity, cell-based; settings: raw264.7
# [7] = target: T1, Dihydrofolate reductase (Homo sapiens, UniProt P00374); test: Inhibition of human DHFR using dihydrofolate as substrate in presence of NADPH; assay type: toxicity
# T1 sequence (P00374 whole entry): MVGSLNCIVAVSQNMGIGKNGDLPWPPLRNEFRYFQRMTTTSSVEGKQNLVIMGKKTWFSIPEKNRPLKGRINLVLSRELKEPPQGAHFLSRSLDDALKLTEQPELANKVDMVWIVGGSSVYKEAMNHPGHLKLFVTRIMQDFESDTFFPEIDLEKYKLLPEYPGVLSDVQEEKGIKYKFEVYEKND
# [8] = target: T2, Pteridine reductase 1 (Leishmania major, UniProt Q01782); test: Inhibition of recombinant Leishmania major PTR1 expressed in Escherichia coli BL21 using folic acid as substrate in presence of NADPH
# T2 sequence (Q01782 whole entry): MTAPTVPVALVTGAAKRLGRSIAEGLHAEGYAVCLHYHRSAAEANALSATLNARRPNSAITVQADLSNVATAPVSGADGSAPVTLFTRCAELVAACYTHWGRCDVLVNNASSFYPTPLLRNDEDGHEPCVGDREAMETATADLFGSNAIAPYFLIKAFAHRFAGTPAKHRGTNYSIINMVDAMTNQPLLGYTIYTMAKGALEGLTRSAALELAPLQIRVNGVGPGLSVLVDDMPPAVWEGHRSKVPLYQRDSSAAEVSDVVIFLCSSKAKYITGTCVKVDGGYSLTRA
# [9] = tested on: Leishmania tropica; test: Antileishmanial activity against Leishmania tropica MHOM/A7/1974/SAF-K27 incubated for 48 hrs by Neubauer hemocytometer analysis; assay type: functional, organism-based; settings: MHOM/A7/1974/SAF-K27, 48 h
# [10] = (§2) Cytotoxicity against mouse L929 cells by alamar blue method; assay type: toxicity, cell-based; settings: mouse, L929 cells
# [11] = tested on: L929; test: as §2; assay type: toxicity, cell-based; settings: l929
smiles,measurement,setting,value
CN1CCN(c2ncc3nc(NC(=O)c4ccc(Cl)cc4)sc3n2)CC1,selectivity ratio,[1],9.54
same,IC50,[2],15.4 µg/mL
same,IC50,[3],15.3 µg/mL
same,IC50,[4],15.7 µg/mL
same,IC50,[5],14.1 µg/mL
same,log10 IC50 (µg/mL),[6],1.15
same,IC50,[7],271 µM
same,IC50,[8],28.4 µM
same,IC50,[9],15.6 µg/mL
same,IC50,[10],25.7 µg/mL
same,log10 IC50 (µg/mL),[11],1.41

# From ChEMBL document CHEMBL5352486, “Design, synthesis, in vitro - In vivo biological evaluation of novel thiazolopyrimidine compounds as antileishmanial agent with PTR1 inhibition” (Eur J Med Chem, 2023)
